Laboratory results published in PubChem BioAssay (NCI).
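Briefly, cells in 96-well plates were exposed to five compound concentrations for 48 h, and endpoints were estimated by linear interpolation. Abbreviation: GI50, concentration required for 50% inhibition of growth. The concentration for full growth arrest is given as TGI.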

Tests used:
Assay in all cases: NCI-60 cell line screen, 48 h
HOP-92 NSCLC = test system: HOP-92 NSCLC
HOP-62 NSCLC = test system: HOP-62 NSCLC
UACC-257 melanoma = test system: UACC-257 melanoma
HS 578T breast = test system: HS 578T breast
OVCAR-4 ovarian = test system: OVCAR-4 ovarian
HCT-15 colon = test system: HCT-15 colon
UACC-62 melanoma = test system: UACC-62 melanoma
UO-31 renal = test system: UO-31 renal
SK-MEL-5 melanoma = test system: SK-MEL-5 melanoma
MDA-MB-468 breast = test system: MDA-MB-468 breast
NCI-H522 lung = test system: NCI-H522 lung
PC-3 prostate = test system: PC-3 prostate
RPMI-8226 leukemia = test system: RPMI-8226 leukemia
CAKI-1 renal = test system: CAKI-1 renal
COLO 205 colon = test system: COLO 205 colon
TK-10 renal = test system: TK-10 renal
NCI-H23 lung = test system: NCI-H23 lung
SR leukemia = test system: SR leukemia
MOLT-4 leukemia = test system: MOLT-4 leukemia
KM12 colon = test system: KM12 colon
SK-MEL-2 melanoma = test system: SK-MEL-2 melanoma
MDA-MB-435 = test system: MDA-MB-435
SF-539 CNS = test system: SF-539 CNS
NCI/ADR-RES ovarian = test system: NCI/ADR-RES ovarian
A549 NSCLC = test system: A549 NSCLC
HCC-2998 colon = test system: HCC-2998 colon
SK-OV-3 ovarian = test system: SK-OV-3 ovarian
IGROV1 ovarian = test system: IGROV1 ovarian
M14 melanoma = test system: M14 melanoma
A498 renal = test system: A498 renal
SNB-19 CNS = test system: SNB-19 CNS
EKVX NSCLC = test system: EKVX NSCLC
HL-60(TB) leukemia = test system: HL-60(TB) leukemia
NCI-H460 lung = test system: NCI-H460 lung
BT-549 breast = test system: BT-549 breast
LOX IMVI melanoma = test system: LOX IMVI melanoma
HT29 colon = test system: HT29 colon
OVCAR-8 ovarian = test system: OVCAR-8 ovarian
U251 CNS = test system: U251 CNS
K-562 leukemia = test system: K-562 leukemia
NCI-H226 lung = test system: NCI-H226 lung
SF-295 CNS = test system: SF-295 CNS
DU-145 prostate = test system: DU-145 prostate
SK-MEL-28 melanoma = test system: SK-MEL-28 melanoma
MCF7 breast = test system: MCF7 breast
RXF 393 renal = test system: RXF 393 renal
786-0 renal = test system: 786-0 renal
T-47D breast = test system: T-47D breast
OVCAR-5 ovarian = test system: OVCAR-5 ovarian
SW-620 colon = test system: SW-620 colon
SF-268 CNS = test system: SF-268 CNS
OVCAR-3 ovarian = test system: OVCAR-3 ovarian
SNB-75 CNS = test system: SNB-75 CNS
MDA-MB-231 breast = test system: MDA-MB-231 breast
CCRF-CEM leukemia = test system: CCRF-CEM leukemia
MALME-3M melanoma = test system: MALME-3M melanoma
ACHN renal = test system: ACHN renal
HCT-116 colon = test system: HCT-116 colon
SN12C renal = test system: SN12C renal

For `O=C(CSc1nc2ccccc2c(=O)n1-c1ccc(Cl)cc1)Nc1ccc(-c2nc3ccccc3[nH]2)cc1`, the GI50 (HOP-92 NSCLC) was 1.66 µM, the TGI (HOP-92 NSCLC) was 5.33 µM and the GI50 (HOP-62 NSCLC) was 2 µM. The TGI (HOP-62 NSCLC) was 4.11 µM, the GI50 (UACC-257 melanoma) was 1.94 µM and the TGI (UACC-257 melanoma) was 4.55 µM. It also gave a GI50 (HS 578T breast) of 2.12 µM, a TGI (HS 578T breast) of 4.82 µM and a GI50 (OVCAR-4 ovarian) of 1.88 µM. The TGI (OVCAR-4 ovarian) was 3.94 µM, the GI50 (HCT-15 colon) was 1.57 µM and the TGI (HCT-15 colon) was 3.77 µM. For the same compound, the GI50 (UACC-62 melanoma) was 1.99 µM, the TGI (UACC-62 melanoma) was 4.59 µM and the GI50 (UO-31 renal) was 2.03 µM. For the same compound, the TGI (UO-31 renal) was 5.4 µM, the GI50 (SK-MEL-5 melanoma) was 3.62 µM and the TGI (SK-MEL-5 melanoma) was 12.8 µM. It also gave a GI50 (MDA-MB-468 breast) of 1.9 µM, a TGI (MDA-MB-468 breast) of 4.7 µM and a GI50 (NCI-H522 lung) of 1.95 µM. For the same compound, the TGI (NCI-H522 lung) was 4.54 µM, the GI50 (PC-3 prostate) was 3.01 µM and the TGI (PC-3 prostate) was 10.9 µM. It also gave a GI50 (RPMI-8226 leukemia) of 2.78 µM, a TGI (RPMI-8226 leukemia) of 10.1 µM and a GI50 (CAKI-1 renal) of 4.51 µM. The TGI (CAKI-1 renal) was 15.6 µM, the GI50 (COLO 205 colon) was 2.52 µM and the TGI (COLO 205 colon) was 8.14 µM. The GI50 (TK-10 renal) was 1.85 µM, the TGI (TK-10 renal) was 3.64 µM and the GI50 (NCI-H23 lung) was 2.24 µM. It also gave a TGI (NCI-H23 lung) of 5.89 µM, a GI50 (SR leukemia) of 1.42 µM and a TGI (SR leukemia) of 7.77 µM. The GI50 (MOLT-4 leukemia) was 3.47 µM, the TGI (MOLT-4 leukemia) was 18.1 µM and the GI50 (KM12 colon) was 10.9 µM. The TGI (KM12 colon) was 40 µM, the GI50 (SK-MEL-2 melanoma) was 3.06 µM and the TGI (SK-MEL-2 melanoma) was 11.9 µM. For the same compound, the GI50 (MDA-MB-435) was 2.05 µM, the TGI (MDA-MB-435) was 4.53 µM and the GI50 (SF-539 CNS) was 2.11 µM. The TGI (SF-539 CNS) was 4.89 µM, the GI50 (NCI/ADR-RES ovarian) was 2.49 µM and the TGI (NCI/ADR-RES ovarian) was 7.35 µM. For the same compound, the GI50 (A549 NSCLC) was 1.57 µM, the TGI (A549 NSCLC) was 3.01 µM and the GI50 (HCC-2998 colon) was 3.12 µM. For the same compound, the TGI (HCC-2998 colon) was 11.6 µM, the GI50 (SK-OV-3 ovarian) was 10.2 µM and the TGI (SK-OV-3 ovarian) was 21.9 µM. It also gave a GI50 (IGROV1 ovarian) of 3.04 µM, a TGI (IGROV1 ovarian) of 12.5 µM and a GI50 (M14 melanoma) of 2.48 µM. For the same compound, the TGI (M14 melanoma) was 7.06 µM, the GI50 (A498 renal) was 15.9 µM and the TGI (A498 renal) was 29.3 µM. For the same compound, the GI50 (SNB-19 CNS) was 2.22 µM, the TGI (SNB-19 CNS) was 5.28 µM and the GI50 (EKVX NSCLC) was 3.95 µM. The TGI (EKVX NSCLC) was 14.8 µM, the GI50 (HL-60(TB) leukemia) was 6.92 µM and the TGI (HL-60(TB) leukemia) was 21.7 µM. It also gave a GI50 (NCI-H460 lung) of 1.77 µM, a TGI (NCI-H460 lung) of 3.38 µM and a GI50 (BT-549 breast) of 5.33 µM. The TGI (BT-549 breast) was 17.5 µM, the GI50 (LOX IMVI melanoma) was 1.55 µM and the TGI (LOX IMVI melanoma) was 2.89 µM. The GI50 (HT29 colon) was 2.1 µM, the TGI (HT29 colon) was 4.46 µM and the GI50 (OVCAR-8 ovarian) was 1.83 µM. For the same compound, the TGI (OVCAR-8 ovarian) was 3.66 µM, the GI50 (U251 CNS) was 1.84 µM and the TGI (U251 CNS) was 3.23 µM. It also gave a GI50 (K-562 leukemia) of 3.02 µM, a TGI (K-562 leukemia) of 11.5 µM and a GI50 (NCI-H226 lung) of 9 µM. It also gave a TGI (NCI-H226 lung) of 22.5 µM, a GI50 (SF-295 CNS) of 3.3 µM and a TGI (SF-295 CNS) of 11.8 µM. The GI50 (DU-145 prostate) was 2.12 µM, the TGI (DU-145 prostate) was 4.76 µM and the GI50 (SK-MEL-28 melanoma) was 1.82 µM. For the same compound, the TGI (SK-MEL-28 melanoma) was 3.43 µM, the GI50 (MCF7 breast) was 1.31 µM and the TGI (MCF7 breast) was 2.85 µM. For the same compound, the GI50 (RXF 393 renal) was 2.09 µM, the TGI (RXF 393 renal) was 5.31 µM and the GI50 (786-0 renal) was 1.88 µM. It also gave a TGI (786-0 renal) of 3.69 µM, a GI50 (T-47D breast) of 1.78 µM and a TGI (T-47D breast) of 3.56 µM. It also gave a GI50 (OVCAR-5 ovarian) of 3.12 µM, a TGI (OVCAR-5 ovarian) of 13.7 µM and a GI50 (SW-620 colon) of 1.84 µM. For the same compound, the TGI (SW-620 colon) was 3.63 µM, the GI50 (SF-268 CNS) was 3.67 µM and the TGI (SF-268 CNS) was 15.7 µM. It also gave a GI50 (OVCAR-3 ovarian) of 2.05 µM, a TGI (OVCAR-3 ovarian) of 4.3 µM and a GI50 (SNB-75 CNS) of 1.71 µM. It also gave a TGI (SNB-75 CNS) of 6.04 µM, a GI50 (MDA-MB-231 breast) of 1.91 µM and a TGI (MDA-MB-231 breast) of 3.86 µM. For the same compound, the GI50 (CCRF-CEM leukemia) was 4.39 µM, the TGI (CCRF-CEM leukemia) was 19.5 µM and the GI50 (MALME-3M melanoma) was 1.96 µM. It also gave a TGI (MALME-3M melanoma) of 4.47 µM, a GI50 (ACHN renal) of 3.28 µM and a TGI (ACHN renal) of 10.7 µM. It also gave a GI50 (HCT-116 colon) of 1.91 µM, a TGI (HCT-116 colon) of 3.65 µM and a GI50 (SN12C renal) of 1.73 µM. The TGI (SN12C renal) was 3.3 µM.
